The structures appear in SMILES notation.

What is called melting point is the temperature, or range, at which the solid turns liquid. As to `Cc1cc(C)c(C2C(=O)OC3(CCN(N(C)C)CC3)C2=O)c(C)c1` (stereo not given), the melting point is over 200 °C.
Take `O=C1c2ccccc2C(=O)N1CCCCOc1ccccn1`: the melting point was 77 to 78 °C.
Then `COc1ccc(N2CCN(c3c(C)c(C)c4c(c3C)C(c3ccc(C)cc3)C(C)(C)O4)CC2)cc1` (stereo not given), with 189 to 191 °C.
Then `O=C1NC(=O)C(Cc2ccccc2)N1` (stereo not given), with 187 to 189 °C; and `O=C(O)c1cn(C2CC2)c2c(F)c(N3CC(n4ccnn4)C3)c(F)cc2c1=O`, with 315 to 316 °C.
Next, `COC(=O)C1(C(C[N+](=O)[O-])c2ccccc2)CCc2ccccc2C1=O` (stereo not given): 101 to 103 °C; `Cc1c(Cc2ccccc2)oc2cc(O)c(O)cc12`: 95.5 to 98 °C.
In the case of `Clc1ccc(-c2cncn3ncnc23)cc1`, the melting point was in the range of 154 to 155 °C.
Then `O=c1[nH]c2cc(C(F)(F)F)cc(C(F)(F)F)c2[nH]c1=O`, with 305 to 308 °C; and `CCCCOc1ccc(S(=O)(=O)C2(C(=O)O)CCN(Cc3ccccc3)CC2)cc1`, with 144 °C.
Then `CCCCCCCCCCCCS(=O)(=O)N[C@H]1CCCNC(=O)C1`, with 100 to 101 °C; and `Clc1nc(-c2ccco2)c2ncn(Cc3ccc(Cl)c(Cl)c3)c2n1`, with 191 to 193 °C.
Then `O=C(Cc1cccs1)c1c(O)c2cccnc2n(-c2ccccc2)c1=O`, with 197 to 199 °C.
Turning to `c1ccc(-c2cc3n(n2)Cc2ccccc2-3)cc1`, the melting point was 183 to 184 °C.
Consider `Cn1c(C(F)(F)F)ccc(-c2cc(CBr)c(Cl)cc2F)c1=O`, for which the melting point was in the range of 117 to 118 °C.
Then `COC(=O)c1cccc2c(C#N)c[nH]c12`, with 212 to 214 °C; and `CC(C)(C)c1ccnc(-c2cc(C(C)(C)C)ccn2)c1`, with 159 to 160 °C; and `Oc1c(F)cc(Cn2cnnc2S)cc1F`, with 184 to 185 °C.
Next, `O=S(=O)(c1cccc2ccccc12)c1n[nH]c2ccc(OC3CCCNC3)cc12` (stereo not given): 178 to 180 °C.
Then `c1ccc(-c2nc(N3CCN(c4ccccn4)CC3)c3ccccc3n2)cc1`, with 164 to 166 °C; and `CS(=O)(=O)c1ccc(-c2cc(=O)n(CC3CC3)nc2-c2ccc(F)cc2)cc1`, with 130 to 132 °C; and `OCCC(O)OCn1cc(Cl)c2c(Cl)ncnc21` (stereo not given), with 142 to 143 °C.
For `Cc1ccc(OC(=CC(=O)c2ccc(Br)cc2)C(=O)c2ccc(Br)cc2)cc1`, the melting point fell in the range of 137 to 138 °C.
Then `Cc1cc(C(=O)CCl)c(N)cc1Cl`, with 129 to 130 °C; and `COc1c(C)c2c(c(O)c1C/C=C(\C)C1CCCC1C(=O)O)C(=O)OC2` (stereo not given), with 157 to 158 °C; and `Cc1cc(NS(=O)(=O)c2cccs2)c2[nH]c(C3=NCCS3)cc2c1C`, with 201 to 202 °C.
Then `Cc1ccc(SN(C)C=Nc2ccc(Cl)cc2C)cc1`, with 49 to 50.5 °C.
Next, `COC1=C(Br)CO/C1=C\c1cccc2ccccc12`: 143 to 148 °C; `CC(=NN(C1=NNC(=O)CC1)c1ccccc1)c1ccccc1`: 176 to 178 °C.
As to `O=c1[nH]c(CCN2CCN(c3nsc4ccccc34)CC2)cs1`, the melting point was 190 °C.
Then `ON=C(c1cccc2nc(N[C@@H]3CCc4ccccc43)ccc12)C1CC1`, with 151 °C; and `N#Cc1cc(-n2ccc(-c3ccc(F)cc3)n2)cc(S(N)(=O)=O)c1`, with 184 to 185 °C; and `O=S1(=O)NC=Nc2c(Br)cc(Br)cc21`, with 289 to 292 °C.
`Cc1cc([C@@H](O)[C@@H](C)N2CCC(O)(c3ccc(F)cc3)CC2)cc(C)c1O[Si](C(C)C)(C(C)C)C(C)C` (relative stereo) registered a melting point of 186 to 187 °C.
Next, `COc1ccc2c(c1)C(N1C(=O)c3ccccc3C1=O)C(=O)N2c1ccc(F)cc1` (stereo not given): 208 to 210 °C.
Then `CCOC(=O)c1c[nH]c2oc3ccccc3c(=O)c2c1=O`, with 174 to 175 °C; and `Cc1sc(C(N)=O)c2c1-c1c(cnn1C)CC2`, with 184 to 185 °C.
Then `O=c1c2ccccc2nc(-c2sc(Nc3ccc(Cl)cc3)nc2-c2ccccc2)n1-c1ccc(Cl)cc1`, with 271 to 272 °C.
`CCOC(=O)C(Oc1ccc(Cl)cc1)C(C)C` (stereo not given) had a melting point of 88 to 91 °C.
Then `CC(=O)OCSC1=CCC2C3CCC4=CC(=O)C=CC4(C)C3(F)C(O)CC12C` (stereo not given), with 193 to 194 °C.
Then `COc1cc(C(=O)c2nc(NC(C)=O)c3ccccn23)ccc1[N+](=O)[O-]`, with 256 °C; and `CC(C)(CNc1ccnc2cc(Cl)ccc12)NCc1ccc(Cl)cc1Cl`, with 138 to 139 °C; and `Cn1c(=O)oc2cc(C(O)CCN3CCOCC3)ccc21` (stereo not given), with 132 °C.
Then `CCCCCCCCCCCCCCCCC/C=C1\SC(=O)NC1=O`, with 97 to 98.5 °C.
Turning to `O=C(O)CCCSC=CS(=O)(=O)CCCC(=O)O`, the melting point came out at 120 °C.
Next, `CC(=O)NC1=NN(c2ccc(Cl)cc2)CC1C` (stereo not given): 172 to 173 °C.
Then `COCOc1c(C(C)(C)C)cc(C=[N+]([O-])C(C)(C)C)cc1C(C)(C)C`, with 202 to 206 °C; and `C[C@@H](O)Cn1ccc2cc(Cl)c(F)cc21`, with 108 to 110 °C.
Then `Cc1cc(SC2=C(O)CC(CCc3cc(Cl)c(N)c(Cl)c3)(C(C)C)OC2=O)c(C(C)(C)C)cc1N` (stereo not given), with 103 to 107 °C; and `Cc1cn(-c2ccc(NC(=O)c3ccc(Cl)c(C#Cc4ccc(NC5CC5)nn4)c3)cc2C(F)(F)F)cn1`, with 150 to 152 °C; and `CCN(CCCCCCN)c1ccc2c(=O)[nH][nH]c(=O)c2c1`, with 170 °C.
As to `CS(=O)(=O)c1ccc(-c2cnn(CC(=O)c3ccc(C#N)cc3)c(=O)c2-c2ccc(F)cc2)cc1`, the melting point was 188 to 189 °C.
Then `COC(=O)CCC(=O)c1ccc(NC(=O)c2ccc(C)cc2)cc1`, with 192 to 195 °C; and `CO/C=C1/C(=O)NC(=O)c2ccc(Br)cc21`, with 210 to 211 °C; and `CC1(C)Oc2ccc(C#N)cc2[C@H](N(Cc2ccco2)c2ncco2)[C@H]1O`, with 63 °C.
Next, `CCOC(=O)NN=Cc1c[nH]c(COC)n1`: 186 to 190 °C.
Next, `O=C1CC2(CCCC2)c2ccc([N+](=O)[O-])cc21`: 104 °C; `CC(=O)OCNC(=O)c1cc(Cl)nc(Cl)c1`: 94 to 95 °C; `Cc1sc2c(c1C(=O)CCCCl)C(=O)NCCC2`: 113 to 115 °C.
Consider `CC(Oc1ccc(-c2ccc(F)c(C#N)c2)cc1)C(O)CCc1cccnc1` (stereo not given), for which the melting point lay in the range of 108 to 109 °C.
Next, `NC(=O)N1C(=O)/C(=C(\O)c2cccs2)c2cc(F)c(Cl)cc21`: 239 to 241 °C; `CCc1nn2c(N3CCN(C)CC3)cc(N3CCOCC3)nc2c1S(=O)(=O)c1ccccc1`: over 250 °C; `CC(=O)c1cc2c(c(Cl)c1O)OC(C(O)=NO)C2` (stereo not given): 234 to 235 °C.
Next, `CCn1ncc2c(-c3cncc(C)c3)c(/C=C/C(=O)O)c(COC)nc21`: 195 to 196 °C; `Cc1nc2c(C=Cc3ccccc3)cccn2c1N=O`: 158 to 160 °C; `CN1CCC(Oc2cc(Cl)ccc2C(N)=O)C1` (stereo not given): 122 to 123 °C.
Then `O=[N+]([O-])c1ccc2ncnc(Nc3cccc(Br)c3)c2c1`, with 267 to 270 °C; and `COc1cc(Nc2nccc(-c3ccc(C#N)cc3)n2)cc(OC)c1OC`, with 183 °C; and `N=C(NO)c1ncn2c(C(F)(F)F)cc(-c3ccc(C(F)(F)F)cc3)nc12`, with 213 °C.
For `O=C(c1ccccc1)c1cnn2c(-c3ccncc3)ccnc12`, the melting point was 185 to 186 °C.
Then `CC(C)(C)c1cc(C=O)c(O)c(S(=O)(=O)CCl)c1`, with 128 to 129 °C.
Next, `O=S1(=O)NCN(C2CC2)c2ccc(F)c(Cl)c21`: 198 to 200 °C.
Next, `NC(=O)NC(C(=O)O)c1cccs1` (stereo not given): 183 to 185 °C; `CCOc1ncc(C(C)=O)cc1C(=O)Nc1c(C(N)=O)nn(C2CN(CC)C2)c1CC`: 230 to 233 °C.
`CC1=C(CO)C(=O)OC(C(C)C2CCC3C4CC5OC56C(O)C=CC(=O)C6(C)C4CCC23C)C1` (stereo not given) gave a melting point of 227 to 228 °C.
In turn, `CON(Cc1ccc(C)cc1)C(=O)C1=C(O)C(=O)N(C)C1` showed a melting point of 150 to 152 °C.
Then `CCCN(CCC)c1nc2ccccc2n2cnnc12`, with 240 to 242 °C; and `COc1cc(OC)c(NC(=O)[C@H](Cc2ccc(OCc3ccccc3)cc2)NC(=O)OC(C)(C)C)c(OC)c1`, with 89 to 95 °C.
Regarding `CCSc1cc(C)nc(SCC)c1NC(=O)CCCCCCCSc1nc2ccccc2o1`, the melting point lay within 82 to 84 °C.
Then `NS(=O)(=O)c1cc(C(=O)O)cc(OCc2ccccc2)c1-c1ccccc1`, with 199 to 200 °C.
Next, `Oc1c2c(nc3c(-c4cc(-c5ccccc5)cs4)cnn13)CCCC2`: 271 to 272 °C.
For the molecule `CCCc1cc(OCc2ccc(-c3ccccc3-c3nnn(C(c4ccccc4)(c4ccccc4)c4ccccc4)n3)cc2)c(C(=O)OC)c(C)n1`, the melting point was 61 to 64 °C.
Then `CCCCOC(=O)COc1ccc(C(=O)Nc2ccccc2Sc2cc(OC)ccc2-c2nnn[nH]2)cc1`, with 169 to 171 °C.
Molecule `CCOC(=O)CCn1c(=O)c(=O)[nH]c2cc(C(F)(F)F)c(-n3c(C)ccc3C)cc21` displayed a melting point of 233 to 235 °C.
For the molecule `O=[N+]([O-])c1ccc(Cl)c(S)c1`, the melting point fell in the range of 267 to 268 °C.
Next, `c1ccc(OCNc2ccncc2)cc1`: 159 to 160 °C; `COc1ccccc1N1CCN(CCCCOc2ccc(-c3cn4ccccc4n3)cc2)CC1`: 144 to 145 °C; `O=C1Nc2cc3c(cc2SC1CCCN1CCN(c2ccc(F)cc2)CC1)OCO3` (stereo not given): 175 to 177 °C.
Then `Cc1nc(N2CCCC(Cc3ccc(F)cc3)C2=O)sc1C(=O)NCc1cccc(F)c1` (stereo not given), with 173 to 175 °C; and `CCOC(=O)c1cnn(Cc2ccccc2)c1-c1ccccc1`, with 78 to 79 °C.

These data come from a melting point compilation (Tetko et al.; mined from patent text by program, amines drawn as free bases though some values may be those of a salt).
